Source: patent US20200024278A1, “COMPOSITION COMPRISING ANTIBIOTIC COMPOUND AND AN HETEROCYCLIC COMPOUND AND THEIR USE IN PREVENTING OR TREATING BACTERIAL INFECTIONS” (MUTABILIS, priority 2016, published 2020)
Where a name gives a salt, the structure may show the parent alone.

Key:
Experiment in all cases: MIC, broth microdilution (CLSI), substance alone or ATB combined with compound at 4 or 8 μg/mL
Assay type in all cases: cell-based, A. baumannii
Conditions in all cases: Acinetobacter baumannii, substance alone, read-out: MIC
[1] = test system: ABA 19606
Summary of the method: (§1)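 Growth inhibition endpoint, read visually after 16-20 h at 35° C in ambient air. Cation-adjusted Mueller-Hinton broth, inoculum 5·10^5 CFU/mL, CLSI M7-A7 protocol.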

[2] = test system: ABA UFR156
Summary of the method: as §1

[3] = test system: ABA UFR160
Summary of the method: as §1

[4] = test system: ABA UFR151
Summary of the method: as §1

[5] = test system: ABA UFR161
Summary of the method: as §1

[6] = test system: ABA 107292
Summary of the method: as §1

[7] = test system: ABA UFR157
Summary of the method: as §1

[8] = test system: ABA UFR155
Summary of the method: as §1

[9] = test system: ABA UFR158
Summary of the method: as §1

[10] = test system: ABA UFR159
Summary of the method: as §1

[11] = test system: ABA UFR153
Summary of the method: as §1

Measured: MIC

NCCCn1c2c(sc1=O)C1CN(C2)C(=O)N1OS(=O)(=O)O (stereo not shown) [Example 10, [5-(3-aminopropyl)-4,9-dioxo-3-thia-5,8,10-triaza-tricyclo[6.2.1.0^2,6]undec-2(6)-en-10-yl] hydrogen sulfate]
32 µg/mL: [1] | [11]
> 32 µg/mL: all other assays above

O=C1N2CC(n3cccn3)=CC(C2)N1OS(=O)(=O)[O-].[Na+] (stereo not shown) [Example 11, sodium (7-oxo-3-pyrazol-1-yl-1,6-diazabicyclo[3.2.1]oct-3-en-6-yl) sulfate]
> 32 µg/mL: all assays above
